Measurements: patent US10975075B2, “Imidazolonylquinolines and the use thereof as ATM kinase inhibitors” (priority 2015, dated 2021)
pIC50: −log10 of the molar value.

system: phosphorylation of CHK2 (phospho-Thr68) in HCT116 cells; assay: Cellular pCHK2 assay (bleomycin-induced phosphorylation of CHK2 phospho-Thr68, immunofluorescence high content); type: cell-based, human; details: 10 μM bleomycin, 4 h
Text: For the identification of substances which inhibit the phosphorylation of the protein kinase CHK2 at the amino acid threonine 68, an immunofluorescence-based “high content” analysis assay was used in HCT116 cells.
In vitro cell-based immunofluorescence assay for the identification of inhibitors of bleomycin-induced phosphorylation of CHK2 (phospho-Thr68) in the human colon carcinoma cell line HCT116:
HCT116 cells are sown out in a defined cell density in 384-well plates in culture medium (DMEM high glucose, 2 mM GlutaMax, 1 mM Na pyruvate, 10% FCS) and incubated overnight at 37° C. and 10% of CO2. On the following day, the test substances are added in a defined concentration range (1 nM to 30 μM) in combination with 10 μM bleomycin, where the concentration of the solvent DMSO is kept constant at 0.5%. […] Parallel staining of DNA with propidium iodide enables determination of the cell count. The pCHK2 signal is detected using a high-content imager (Molecular Devices IMX Ultra) and automatic image analysis using the MetaXpress software belonging to the instrument. The number of cell nuclei which have a pCHK2 signal above a defined background is determined.

SMILES	pIC50
COc1cc2ncc3c(c2cc1-c1cnn(C)c1)n(-c1c(C)n[nH]c1C)c(=O)n3C [Example 118, 1-(3,5-Dimethyl-1H-pyrazol-4-yl)-7-methoxy-3-methyl-8-(1-methyl-1H-pyrazol-4-yl)-1,3-dihydroimidazo[4,5-c]-quinolin-2-one]	6.00 to 6.70
COc1cc2ncc3c(c2cc1-c1cn[nH]c1)n(-c1ccncc1C)c(=O)n3C [Compound Example 19, 7-Methoxy-3-methyl-1-(3-methylpyridin-4-yl)-8-(1 H-pyrazol-4-yl)-1,3-dihydro-imidazo[4,5-c]quinolin-2-one]	> 6.70
COc1cc2ncc3c(c2cc1-c1cnn(C)c1)n(-c1cnn(C)c1)c(=O)n3C [Compound Example 23, 7-Methoxy-3-methyl-1,8-bis-(1-methyl-1H-pyrazol-4-yl)-1,3-dihydroimidazo[4,5-c] quinolin-2-one]	> 6.70
